Results on 15 molecules are retold here after patent US20240360081A1, “SULFONAMIDE OREXIN RECEPTOR AGONISTS AND USES THEREOF” (Jazz Pharmaceuticals Ireland Limited, priority 2021, published 2024).

The assay concerns the target T1, human recombinant OX2 (hOX2) receptor expressed in CHO cells (Homo sapiens, UniProt O43614).
T1 construct: host or cells: CHO cells (hOX2-CHO)
T1 sequence (O43614 1-444): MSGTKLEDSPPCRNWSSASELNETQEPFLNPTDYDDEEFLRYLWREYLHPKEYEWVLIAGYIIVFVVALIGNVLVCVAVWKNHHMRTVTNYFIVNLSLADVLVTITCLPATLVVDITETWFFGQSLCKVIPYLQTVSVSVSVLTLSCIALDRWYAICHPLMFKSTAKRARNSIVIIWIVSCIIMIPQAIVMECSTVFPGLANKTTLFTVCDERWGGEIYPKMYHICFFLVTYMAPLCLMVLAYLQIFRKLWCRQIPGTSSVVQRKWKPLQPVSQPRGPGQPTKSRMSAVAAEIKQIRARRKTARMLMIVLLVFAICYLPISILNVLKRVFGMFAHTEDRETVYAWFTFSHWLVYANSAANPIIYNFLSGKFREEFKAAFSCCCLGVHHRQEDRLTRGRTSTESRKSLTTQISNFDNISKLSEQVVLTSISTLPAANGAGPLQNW
Description: IP-1 accumulation assay (IP-One HTRF) in hOX2-CHO cells. The settings on record: 60 min at 37° C., 11 points CRC, response as % of maximal OX-A response. In kind it is cell-based. An outline of the steps:
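CHO cells expressing hOX2, 20,000 cells/well in HBSS with 20 mM HEPES pH 7.4, 50 mM LiCl, 0.1% BSA; 11-point compound series, 0.5% DMSO final, 60 min at 37 °C. IP-1 by HTRF (665/615 ratio) after 60 min at room temperature, as % of maximal OX-A response; EC50 by four-parameter logistic fit, mean of ≥2 experiments in duplicate.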
Background: Time-resolved FRET reads energy transfer from a long-lived donor to a nearby acceptor.
Broadly, the EC50 is the concentration giving half of the maximal effect. As for `CS(=O)(=O)NCC(CO[C@H]1CC[C@@H](c2ccccc2)CC1)c1cccn2cnnc12` (stereo partly drawn) [Example 5f, N-(3-{[(CIS)-4-phenylcyclohexyl]oxy}-2-{[1,2,4]triazolo[4,3-a]pyridin-8-yl}propyl)methanesulfonamide], the EC50 was 100 to 1000 nM.
With `Cc1cc(C(CNS(=O)(=O)N(C)C)CO[C@H]2CC[C@@H](c3ccccc3)CC2)n2nccc2c1` (stereo partly drawn) [Example 5g, dimethyl[(2-{5-methylpyrazolo[1,5-a]pyridin-7-yl}-3-{[(CIS)-4-phenylcyclohexyl]oxy}propyl)sulfamoyl]amine] the figure was 100 to 1000 nM.
Then `CN(C)S(=O)(=O)NCC(CO[C@H]1CC[C@@H](c2cccc(F)c2)CC1)c1cccc2c1nnn2C` (stereo partly drawn) [Example 5h, dimethyl({[2-(1-methyl-1H-1,2,3-benzotriazol-4-yl)-3-{[(CIS)-4-(3-fluorophenyl)cyclohexyl]oxy}propyl]sulfamoyl})amine], with 1000 to 10000 nM.
Then `Cc1cc(C)nc(C(CNS(C)(=O)=O)CO[C@H]2CC[C@@H](c3ccccc3)CC2)c1` (stereo partly drawn) [Example 5i, N-[2-(4,6-dimethylpyridin-2-yl)-3-{[(CIS)-4-phenylcyclohexyl]oxy}propyl]methanesulfonamide], with 1000 to 10000 nM; and `Cc1cc(C)[n+]([O-])c(C(CNS(C)(=O)=O)CO[C@H]2CC[C@@H](c3ccccc3)CC2)c1` (stereo partly drawn) [Example 5j, 2-(1-methanesulfonamido-3-{[(CIS)-4-phenylcyclohexyl]oxy}propan-2-yl)-4,6-dimethylpyridin-1-ium-1-olate], with < 100 nM; and `Cc1cc(C(CNS(=O)(=O)CF)CO[C@H]2CC[C@@H](c3cccc(F)c3)CC2)c(=O)n(C)c1` (stereo partly drawn) [Example 5m, N-[2-(1,5-dimethyl-2-oxo-1,2-dihydropyridin-3-yl)-3-{[(CIS)-4-(3-fluorophenyl)cyclohexyl]oxy}propyl]-1-fluoromethanesulfonamide], with < 100 nM.
Turning to `Cc1cc(C(CNS(C)(=O)=O)COC2CCN(c3ncc(F)cn3)CC2)c(=O)n(C)c1` (stereo not drawn) [Example 5p, N-[2-(1,5-dimethyl-2-oxo-1,2-dihydropyridin-3-yl)-3-{[1-(5-fluoropyrimidin-2-yl)piperidin-4-yl]oxy}propyl]methanesulfonamide], the EC50 was > 10000 nM.
With `Cc1cc(C(CNS(=O)(=O)N(C)C)CO[C@H]2CC[C@@H](c3cccc(F)c3)CC2)c(=O)n(C)c1` (stereo partly drawn) [Example 5q, 3-{1-[(dimethylsulfamoyl)amino]-3-{[(CIS)-4-(3-fluorophenyl)cyclohexyl]oxy}propan-2-yl}-1,5-dimethyl-1,2-dihydropyridin-2-one] the figure was < 100 nM; with `Cc1cc(C(CNS(=O)(=O)N(C)C)CO[C@H]2CC[C@@H](c3cc(F)cc(F)c3)CC2)c(=O)n(C)c1` (stereo partly drawn) [Example 5u, 3-{1-[(dimethylsulfamoyl)amino]-3-{[(CIS)-4-(3,5-difluorophenyl)cyclohexyl]oxy}propan-2-yl}-1,5-dimethyl-1,2-dihydropyridin-2-one], < 100 nM.
Then `Cc1cc(C(CNS(C)(=O)=O)CO[C@H]2CC[C@@H](c3cccc(F)c3)CC2)c(=O)n(C2CC2)c1` (stereo partly drawn) [Example 5v, N-[2-(1-cyclopropyl-5-methyl-2-oxo-1,2-dihydropyridin-3-yl)-3-{[(CIS)-4-(3-fluorophenyl)cyclohexyl]oxy}propyl]methanesulfonamide], with < 100 nM; and `Cc1cc(C(CNS(C)(=O)=O)CO[C@H]2CC[C@@H](c3cccc(F)c3)CC2)c(=O)n(CC(F)F)c1` (stereo partly drawn) [Example 5w, N-{2-[1-(2,2-difluoroethyl)-5-methyl-2-oxo-1,2-dihydropyridin-3-yl]-3-{[(CIS)-4-(3-fluorophenyl)cyclohexyl]oxy}propyl}methanesulfonamide], with < 100 nM.
For `Cc1cc(C(CNS(C)(=O)=O)CO[C@H]2CC[C@@H](c3cccc(F)c3)CC2)c(=O)n(C(F)F)c1` (stereo partly drawn) [Example 5x, N-{2-[1-(difluoromethyl)-5-methyl-2-oxo-1,2-dihydropyridin-3-yl]-3-{[(CIS)-4-(3-fluorophenyl)cyclohexyl]oxy}propyl}methanesulfonamide], the EC50 was < 100 nM.
With `Cc1cc(-c2cccnc2)cn(C(CNS(C)(=O)=O)CO[C@H]2CC[C@@H](c3ccccc3)CC2)c1=O` (stereo partly drawn) [Example 6a, N-(2-{5-methyl-6-oxo-1,6-dihydro-[3,3′-bipyridin]-1-yl}-3-{[(CIS)-4-phenylcyclohexyl]oxy}propyl) methanesulfonamide] the figure was 1000 to 10000 nM.
Then `Cc1cc(-n2cccn2)cn(C(CNS(C)(=O)=O)CO[C@H]2CC[C@@H](c3ccccc3)CC2)c1=O` (stereo partly drawn) [Example 7a, N-{2-[3-methyl-2-oxo-5-(1H-pyrazol-1-yl)-1,2-dihydropyridin-1-yl]-3-{[(CIS)-4-phenylcyclohexyl]oxy}propyl}methanesulfonamide], with 100 to 1000 nM; and `CS(=O)(=O)NCC(Cc1cccc(-c2ccccc2)c1)n1ccccc1=O` (stereo not drawn) [Example 8a, N-(3-{[1,1′-biphenyl]-3-yl}-2-(2-oxo-1,2-dihydropyridin-1-yl)propyl)methanesulfonamide], with > 10000 nM.
